How the values were obtained:
[1] = target: Ribosomal protein S6 kinase alpha-3 (Homo sapiens) (UniProt P51812); assay: Inhibition of human full length RSK2 expressed in baculovirus assessed as substrate phosphorylation using fluorescence-labelled peptides as substrate at 95 uM after 90 mins by microfluidic peptide phosphorylation assay
[2] = target: Rho-associated protein kinase 2 (Homo sapiens) (UniProt O75116); assay: Inhibition of human ROCK2 catalytic domain expressed in baculovirus assessed as substrate phosphorylation using fluorescence-labelled peptides as substrate at 95 uM after 90 mins by microfluidic peptide phosphorylation assay
[3] = target: Tyrosine-protein kinase Lyn (Homo sapiens) (UniProt P07948); assay: Inhibition of human full length LYN expressed in baculovirus assessed as substrate phosphorylation using fluorescence-labelled peptides as substrate at […] after 90 mins by microfluidic peptide phosphorylation assay
[4] = target: Tyrosine-protein kinase HCK (Homo sapiens) (UniProt P08631); assay: Inhibition of human HCK catalytic domain expressed in baculovirus assessed as substrate phosphorylation using fluorescence-labelled peptides as substrate at […] after 90 mins by microfluidic peptide phosphorylation assay
[5] = target: T1, Serine/threonine-protein kinase 3 (Homo sapiens) (UniProt Q13188); assay: Inhibition of human full length MST2 expressed in baculovirus assessed as substrate phosphorylation using fluorescence-labelled peptides as substrate at 420 uM after 90 mins by microfluidic peptide phosphorylation assay
T1 sequence (whole entry): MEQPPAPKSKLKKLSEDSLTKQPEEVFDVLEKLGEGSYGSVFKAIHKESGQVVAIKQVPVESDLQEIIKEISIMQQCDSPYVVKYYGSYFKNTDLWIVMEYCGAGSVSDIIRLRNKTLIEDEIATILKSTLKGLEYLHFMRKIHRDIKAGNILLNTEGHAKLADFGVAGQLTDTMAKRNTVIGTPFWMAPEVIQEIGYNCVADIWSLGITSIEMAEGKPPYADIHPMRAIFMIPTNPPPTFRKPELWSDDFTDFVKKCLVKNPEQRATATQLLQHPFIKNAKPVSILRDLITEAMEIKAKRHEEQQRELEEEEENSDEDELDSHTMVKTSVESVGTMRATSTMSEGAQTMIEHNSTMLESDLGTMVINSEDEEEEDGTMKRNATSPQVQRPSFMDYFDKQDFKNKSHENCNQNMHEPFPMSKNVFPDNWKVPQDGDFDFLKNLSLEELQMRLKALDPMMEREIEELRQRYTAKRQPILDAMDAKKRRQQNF

[6] = target: MAP kinase p38 (Homo sapiens) (UniProt O15264+Q15759+Q16539+P53778); assay: Inhibition of human full length p38 beta2 expressed in Escherichia coli cell assessed as substrate phosphorylation using fluorescence-labelled peptides as substrate at 420 uM after 90 mins by microfluidic peptide phosphorylation assay
[7] = target: Tyrosine-protein kinase ABL2 (Homo sapiens) (UniProt P42684); assay: Inhibition of human truncated Arg expressed in baculovirus assessed as substrate phosphorylation using fluorescence-labelled peptides as substrate at 0.2 uM after 90 mins by microfluidic peptide phosphorylation assay
[8] = target: Serine/threonine-protein kinase Chk2 (Homo sapiens) (UniProt O96017); assay: Inhibition of human full length CHK2 expressed in baculovirus assessed as substrate phosphorylation using fluorescence-labelled peptides as substrate at 0.2 uM after 90 mins by microfluidic peptide phosphorylation assay
[9] = target: T2, Serine/threonine-protein kinase D1 (Homo sapiens) (UniProt Q15139); assay: Inhibition of human full length PKD1 expressed in baculovirus assessed as substrate phosphorylation using fluorescence-labelled peptides as substrate at 2 uM after 90 mins by microfluidic peptide phosphorylation assay
T2 sequence (whole entry): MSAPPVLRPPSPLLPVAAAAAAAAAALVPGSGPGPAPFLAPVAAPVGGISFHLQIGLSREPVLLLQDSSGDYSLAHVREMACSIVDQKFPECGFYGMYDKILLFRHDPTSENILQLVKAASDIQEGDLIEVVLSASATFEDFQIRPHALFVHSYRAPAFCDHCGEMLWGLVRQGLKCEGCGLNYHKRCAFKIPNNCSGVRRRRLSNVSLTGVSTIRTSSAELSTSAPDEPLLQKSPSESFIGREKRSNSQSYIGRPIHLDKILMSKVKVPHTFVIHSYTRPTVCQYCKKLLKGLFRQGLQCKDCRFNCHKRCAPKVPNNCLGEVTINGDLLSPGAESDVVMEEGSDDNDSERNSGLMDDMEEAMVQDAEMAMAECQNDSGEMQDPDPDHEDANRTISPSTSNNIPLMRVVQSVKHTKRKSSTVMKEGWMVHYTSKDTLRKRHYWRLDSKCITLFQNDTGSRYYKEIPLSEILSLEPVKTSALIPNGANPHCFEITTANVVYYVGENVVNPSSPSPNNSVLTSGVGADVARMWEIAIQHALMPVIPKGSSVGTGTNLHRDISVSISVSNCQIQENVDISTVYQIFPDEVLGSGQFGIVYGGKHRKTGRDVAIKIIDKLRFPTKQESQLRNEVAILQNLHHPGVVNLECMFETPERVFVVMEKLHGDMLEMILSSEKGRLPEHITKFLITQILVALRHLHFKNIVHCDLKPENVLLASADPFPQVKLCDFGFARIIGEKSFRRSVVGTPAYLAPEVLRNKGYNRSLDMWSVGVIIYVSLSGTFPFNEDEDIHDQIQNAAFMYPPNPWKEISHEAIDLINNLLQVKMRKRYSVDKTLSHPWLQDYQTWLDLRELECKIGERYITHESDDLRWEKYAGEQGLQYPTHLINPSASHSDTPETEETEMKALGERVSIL

[10] = target: Dual specificity tyrosine-phosphorylation-regulated kinase 1A (Rattus norvegicus) (UniProt Q63470); assay: Inhibition of rat full length DYRK1a expressed in Escherichia coli cell assessed as substrate phosphorylation using fluorescence-labelled peptides as substrate at 2 uM after 90 mins by microfluidic peptide phosphorylation assay
[11] = target: Glycogen synthase kinase-3 beta (Homo sapiens) (UniProt P49841); assay: Inhibition of human full length GSK-3 beta expressed in baculovirus assessed as substrate phosphorylation using fluorescence-labelled peptides as substrate at 2 uM after 90 mins by microfluidic peptide phosphorylation assay
[12] = target: Rho-associated protein kinase 2 (Homo sapiens) (UniProt O75116); assay: Inhibition of human ROCK2 catalytic domain expressed in baculovirus assessed as substrate phosphorylation using fluorescence-labelled peptides as substrate at 1000 uM after 90 mins by microfluidic peptide phosphorylation assay

Rho-associated protein kinase 2 (Homo sapiens), sequence (O75116 whole entry, looked up, the tested form may be a part): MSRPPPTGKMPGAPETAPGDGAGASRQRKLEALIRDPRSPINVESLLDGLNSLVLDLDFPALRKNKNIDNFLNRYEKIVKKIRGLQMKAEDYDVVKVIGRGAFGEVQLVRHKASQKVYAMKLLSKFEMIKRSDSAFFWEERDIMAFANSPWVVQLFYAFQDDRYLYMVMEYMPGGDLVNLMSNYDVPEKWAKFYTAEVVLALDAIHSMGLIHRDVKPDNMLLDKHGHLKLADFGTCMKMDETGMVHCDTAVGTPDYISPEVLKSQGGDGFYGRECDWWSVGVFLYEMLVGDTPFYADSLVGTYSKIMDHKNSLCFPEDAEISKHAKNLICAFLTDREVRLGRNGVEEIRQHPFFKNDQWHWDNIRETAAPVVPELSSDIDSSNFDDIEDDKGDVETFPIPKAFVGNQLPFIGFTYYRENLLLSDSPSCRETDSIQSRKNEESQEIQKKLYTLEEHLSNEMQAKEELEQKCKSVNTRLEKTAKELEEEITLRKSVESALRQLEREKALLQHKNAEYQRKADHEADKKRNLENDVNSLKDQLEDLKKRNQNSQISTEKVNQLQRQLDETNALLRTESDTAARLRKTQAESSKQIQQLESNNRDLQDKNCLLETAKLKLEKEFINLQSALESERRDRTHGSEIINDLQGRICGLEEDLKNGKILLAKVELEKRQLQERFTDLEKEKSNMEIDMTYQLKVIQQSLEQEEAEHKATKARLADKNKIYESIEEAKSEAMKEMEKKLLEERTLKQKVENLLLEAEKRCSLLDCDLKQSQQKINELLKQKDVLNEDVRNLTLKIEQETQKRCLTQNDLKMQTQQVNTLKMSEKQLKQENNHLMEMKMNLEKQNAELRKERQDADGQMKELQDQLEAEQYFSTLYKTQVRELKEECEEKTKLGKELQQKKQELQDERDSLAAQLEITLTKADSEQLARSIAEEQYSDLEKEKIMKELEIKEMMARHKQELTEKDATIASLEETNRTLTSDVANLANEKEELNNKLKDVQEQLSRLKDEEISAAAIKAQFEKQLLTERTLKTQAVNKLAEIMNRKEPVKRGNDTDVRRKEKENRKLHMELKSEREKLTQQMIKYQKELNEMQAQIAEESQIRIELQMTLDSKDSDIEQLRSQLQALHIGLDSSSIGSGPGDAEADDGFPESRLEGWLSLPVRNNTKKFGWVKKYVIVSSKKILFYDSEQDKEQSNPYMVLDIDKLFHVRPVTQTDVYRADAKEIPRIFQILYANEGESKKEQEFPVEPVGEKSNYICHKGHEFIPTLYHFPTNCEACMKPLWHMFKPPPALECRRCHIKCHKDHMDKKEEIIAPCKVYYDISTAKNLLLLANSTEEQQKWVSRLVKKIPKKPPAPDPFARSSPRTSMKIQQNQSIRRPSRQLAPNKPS
Ribosomal protein S6 kinase alpha-3 (Homo sapiens), sequence (P51812 whole entry, the tested form may be a part): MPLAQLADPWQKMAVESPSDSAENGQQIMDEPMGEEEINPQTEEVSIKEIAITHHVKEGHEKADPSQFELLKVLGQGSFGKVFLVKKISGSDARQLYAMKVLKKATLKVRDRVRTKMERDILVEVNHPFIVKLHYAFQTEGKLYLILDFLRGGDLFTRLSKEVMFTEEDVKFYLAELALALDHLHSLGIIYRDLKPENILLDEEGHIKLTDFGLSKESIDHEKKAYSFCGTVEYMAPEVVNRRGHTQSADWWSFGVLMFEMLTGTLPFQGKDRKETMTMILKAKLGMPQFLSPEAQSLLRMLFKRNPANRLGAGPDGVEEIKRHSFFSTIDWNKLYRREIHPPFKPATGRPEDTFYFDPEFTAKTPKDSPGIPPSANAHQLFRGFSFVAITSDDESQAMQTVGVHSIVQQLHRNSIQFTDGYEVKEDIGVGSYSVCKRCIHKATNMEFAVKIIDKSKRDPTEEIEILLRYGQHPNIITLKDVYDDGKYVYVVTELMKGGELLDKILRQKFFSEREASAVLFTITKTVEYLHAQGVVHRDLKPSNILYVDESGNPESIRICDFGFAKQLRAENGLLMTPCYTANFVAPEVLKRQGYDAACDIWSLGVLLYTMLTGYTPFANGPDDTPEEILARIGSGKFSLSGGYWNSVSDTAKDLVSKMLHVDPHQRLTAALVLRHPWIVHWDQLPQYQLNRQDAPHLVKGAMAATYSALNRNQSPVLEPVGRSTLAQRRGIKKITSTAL
Tyrosine-protein kinase ABL2 (Homo sapiens), sequence (P42684 whole entry, the tested form may be a part): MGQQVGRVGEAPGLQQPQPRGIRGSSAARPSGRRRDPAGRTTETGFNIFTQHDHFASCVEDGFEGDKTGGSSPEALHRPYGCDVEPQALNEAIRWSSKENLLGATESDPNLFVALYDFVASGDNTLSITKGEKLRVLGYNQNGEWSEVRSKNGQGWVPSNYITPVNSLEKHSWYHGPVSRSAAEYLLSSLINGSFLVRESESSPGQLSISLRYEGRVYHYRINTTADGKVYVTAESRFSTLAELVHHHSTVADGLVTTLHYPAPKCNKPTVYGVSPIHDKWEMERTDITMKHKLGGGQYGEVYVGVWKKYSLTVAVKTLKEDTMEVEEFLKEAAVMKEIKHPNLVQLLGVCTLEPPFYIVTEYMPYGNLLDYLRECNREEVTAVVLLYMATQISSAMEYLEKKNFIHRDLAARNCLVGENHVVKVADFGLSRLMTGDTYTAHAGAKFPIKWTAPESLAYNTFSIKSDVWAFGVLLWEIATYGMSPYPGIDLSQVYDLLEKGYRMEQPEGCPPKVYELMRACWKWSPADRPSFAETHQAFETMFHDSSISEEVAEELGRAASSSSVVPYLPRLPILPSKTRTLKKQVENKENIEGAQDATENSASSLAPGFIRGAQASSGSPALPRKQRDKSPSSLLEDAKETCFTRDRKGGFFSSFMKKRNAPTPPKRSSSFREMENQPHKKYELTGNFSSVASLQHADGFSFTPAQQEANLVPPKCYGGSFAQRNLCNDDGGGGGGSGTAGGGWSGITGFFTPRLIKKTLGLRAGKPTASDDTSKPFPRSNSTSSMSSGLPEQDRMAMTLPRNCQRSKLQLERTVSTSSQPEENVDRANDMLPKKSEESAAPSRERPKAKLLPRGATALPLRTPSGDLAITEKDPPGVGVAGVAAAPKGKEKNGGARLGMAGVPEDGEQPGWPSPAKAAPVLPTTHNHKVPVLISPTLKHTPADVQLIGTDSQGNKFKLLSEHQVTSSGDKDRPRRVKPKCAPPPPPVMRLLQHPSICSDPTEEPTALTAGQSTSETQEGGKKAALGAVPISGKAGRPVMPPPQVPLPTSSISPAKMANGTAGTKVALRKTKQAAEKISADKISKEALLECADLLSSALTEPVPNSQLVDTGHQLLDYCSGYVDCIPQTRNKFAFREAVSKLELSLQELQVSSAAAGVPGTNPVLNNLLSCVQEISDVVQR
Glycogen synthase kinase-3 beta (Homo sapiens), sequence (P49841 whole entry, looked up, the tested form may be a part): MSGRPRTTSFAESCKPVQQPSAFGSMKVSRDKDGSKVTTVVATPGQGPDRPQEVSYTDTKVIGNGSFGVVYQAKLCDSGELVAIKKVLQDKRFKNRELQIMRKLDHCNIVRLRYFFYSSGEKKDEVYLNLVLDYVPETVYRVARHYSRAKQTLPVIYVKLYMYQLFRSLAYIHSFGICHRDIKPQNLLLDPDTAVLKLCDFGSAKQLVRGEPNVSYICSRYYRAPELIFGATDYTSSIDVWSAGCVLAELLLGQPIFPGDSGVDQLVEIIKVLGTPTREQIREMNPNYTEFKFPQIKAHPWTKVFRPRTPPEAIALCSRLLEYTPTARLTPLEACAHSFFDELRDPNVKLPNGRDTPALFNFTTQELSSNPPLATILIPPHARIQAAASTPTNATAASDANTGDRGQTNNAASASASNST
Serine/threonine-protein kinase Chk2 (Homo sapiens), sequence (O96017 whole entry): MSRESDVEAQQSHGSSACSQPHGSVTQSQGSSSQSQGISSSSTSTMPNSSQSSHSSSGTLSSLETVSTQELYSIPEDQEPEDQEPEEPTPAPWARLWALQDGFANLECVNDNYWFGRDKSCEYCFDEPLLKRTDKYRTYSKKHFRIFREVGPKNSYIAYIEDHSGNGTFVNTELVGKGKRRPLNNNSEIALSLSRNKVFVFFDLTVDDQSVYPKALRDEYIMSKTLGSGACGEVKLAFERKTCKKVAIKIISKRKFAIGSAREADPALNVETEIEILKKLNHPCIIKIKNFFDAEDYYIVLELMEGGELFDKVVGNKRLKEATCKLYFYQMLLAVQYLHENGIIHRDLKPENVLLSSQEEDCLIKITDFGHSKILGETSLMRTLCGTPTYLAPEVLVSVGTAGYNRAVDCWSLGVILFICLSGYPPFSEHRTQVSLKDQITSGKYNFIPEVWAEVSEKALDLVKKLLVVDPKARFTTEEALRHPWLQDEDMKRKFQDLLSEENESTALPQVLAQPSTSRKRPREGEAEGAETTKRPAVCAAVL
Tyrosine-protein kinase Lyn (Homo sapiens), sequence (P07948 2-512 limits assumed): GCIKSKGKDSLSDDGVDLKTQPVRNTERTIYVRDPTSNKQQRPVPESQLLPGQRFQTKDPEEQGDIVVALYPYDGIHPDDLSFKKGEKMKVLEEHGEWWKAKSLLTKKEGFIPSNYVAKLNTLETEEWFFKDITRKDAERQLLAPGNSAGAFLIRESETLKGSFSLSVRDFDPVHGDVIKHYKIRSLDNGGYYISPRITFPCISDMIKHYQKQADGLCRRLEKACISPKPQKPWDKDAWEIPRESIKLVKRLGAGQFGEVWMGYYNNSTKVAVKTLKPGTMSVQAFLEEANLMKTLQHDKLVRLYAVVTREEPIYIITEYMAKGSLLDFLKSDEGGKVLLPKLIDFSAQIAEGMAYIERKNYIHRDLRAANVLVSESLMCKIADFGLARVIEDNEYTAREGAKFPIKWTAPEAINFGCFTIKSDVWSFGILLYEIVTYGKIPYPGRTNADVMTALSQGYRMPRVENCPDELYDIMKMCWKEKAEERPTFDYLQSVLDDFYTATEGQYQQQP

**Q.** What does the source list for `NCCc1ccc(-c2ncnc3[nH]cnc23)cc1`?
**A.** inhibition [1]: 87.5%; inhibition [2]: 93.5%

**Q.** How did the inhibition [3] turn out when `COC(=O)c1cnc(Nc2cnc(C#N)cn2)cc1NCC1CCNCC1` was run?
**A.** 8%

**Q.** And the inhibition [4]?
**A.** 11%

**Q.** `c1nc(N2CCOCC2)c2nc[nH]c2n1` was tested. Which inhibition [5] did it give?
**A.** 99%

**Q.** What about the inhibition [6] of the same compound?
**A.** 1.5%

**Q.** How did the inhibition [7] turn out when `Clc1ccc(C2(c3ccc(-c4ncnc5[nH]cnc45)cc3)CCNCC2)cc1` was run?
**A.** 4.5%

**Q.** And the inhibition [8]?
**A.** 59%

**Q.** `NC1CCN(c2ncnc3[nH]ccc23)CC1` was tested. Which inhibition [9] did it give?
**A.** 26%

**Q.** What about the inhibition [10] of the same compound?
**A.** 0.5%

**Q.** What about the inhibition [11] of the same compound?
**A.** 5%

**Q.** `c1cnc2[nH]ccc2c1` was tested. Which inhibition [12] did it give?
**A.** 99.5%

— ChEMBL document CHEMBL3132769, “Fragment growing to retain or alter the selectivity of anchored kinase hinge-binding fragments” (Medchemcomm, 2014)
